Test results taken from publication PMC7254530 (ACS Omega, 2020).
Like-named read-outs stand apart in the source and are kept apart here.

Key:
[1] = tested on: E. coli ZJ487 (NDM-1/MCR-1); test: microbe, parasite or virus in culture; type: cell-based, Escherichia coli; conditions: for MIC: Escherichia coli; for MIC of Mep combination: Mep with the named analogue at 32 μg/mL; for FIC Index: analogue + Mep; for MIC of analogues of OA combination: analogue with Mep
E. coli ZJ478 = type: in vivo, C57BL/6J male mice; conditions: for survival rate: 120 h
[2] = tested on: AmpC β-lactamase, E. coli BL21 (pET21a); type: biochemical; conditions: co-culture or co-incubation with OA
[3] = tested on: E. coli BL21 (pET28a-SP-NDM-1); type: cell-based, Escherichia coli; conditions: OA 32 μg/mL with Mep; postinoculation
[4] = tested on: NDM-1-Asp199Ala, NDM-1-Thr201Ala, and NDM-1-Phe240Ala; type: biochemical
NDM-1 F240A = NDM-1 F240A (Klebsiella pneumoniae, UniProt C7C422, F240A); test: biochemical; type: binding
MH-S cells = type: cell-based, mouse; conditions: 6 h
OXA-1 = OXA-1 (Escherichia coli, UniProt P13661); test: biochemical; design: species or system E. coli; conditions: IC50, purified OXA-1
Sequence of OXA-1 (P13661 26-276): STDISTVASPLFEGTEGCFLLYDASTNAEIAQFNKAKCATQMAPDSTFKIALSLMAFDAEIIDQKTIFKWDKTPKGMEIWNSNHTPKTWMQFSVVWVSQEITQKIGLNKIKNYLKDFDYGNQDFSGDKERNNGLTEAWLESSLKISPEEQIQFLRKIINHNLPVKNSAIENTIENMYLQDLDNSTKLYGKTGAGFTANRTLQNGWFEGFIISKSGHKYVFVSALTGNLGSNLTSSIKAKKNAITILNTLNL

A549 cells = type: cell-based, human; conditions: 6 h
S. aureus USA300 [5] = type: in vivo, C57BL/6J male mice; conditions: for survival rate: 96 h; for activity of β-lactamases in bronchoalveolar lavage fluid: 36 h
S. aureus USA300 [6] = type: cell-based, Staphylococcus aureus; conditions: OA combined with penicillin G
E. coli ZJ487 = type: cell-based, Escherichia coli; conditions: OA 32 μg/mL with Mep; postinoculation
TEM-1 = TEM-1 (Escherichia coli, UniProt P62593); test: biochemical; conditions: IC50, purified TEM-1
Sequence of TEM-1 (P62593 24-286 limits assumed): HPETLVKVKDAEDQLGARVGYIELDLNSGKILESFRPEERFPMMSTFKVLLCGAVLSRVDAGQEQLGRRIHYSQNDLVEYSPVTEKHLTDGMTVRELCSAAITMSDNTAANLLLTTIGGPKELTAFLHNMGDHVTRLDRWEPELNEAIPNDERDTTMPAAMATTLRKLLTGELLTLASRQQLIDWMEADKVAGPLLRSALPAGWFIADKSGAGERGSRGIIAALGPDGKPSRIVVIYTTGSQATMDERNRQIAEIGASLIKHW

suilysin (SLY) = suilysin (SLY) (Streptococcus suis, UniProt Q55996); test: biochemical
NDM-1 = NDM-1 (Escherichia coli, UniProt E5KIY2); type: biochemical, E. coli; conditions: OA analogues, Figure 3G
[7] = named compound combined with Mep 5 mg/kg
[8] = OA combined with penicillin G, 36 h postinfection
[9] = monotherapy 50 mg/kg subcutaneous every 8 h
[10] = read-out: MIC of analogues of OA alone, ZJ487, Table 1, median (range)

Compound: C[C@@H](O)[C@H]1C(=O)N2C(C(=O)O)=C(S[C@@H]3CN[C@H](C(=O)N(C)C)C3)[C@H](C)[C@H]12 [Meropenem, meropenem, reference compound]
- MIC ([1]; read-out: MIC of Mep alone, ZJ487, Table 1, median (range)): 32 µg/mL
- MIC of Mep alone ([1]; ZJ487, Table 1, median (range), listed as Mep): 16(16–32) μg/mL
- survival rate (E. coli ZJ478; Mep 5 mg/kg alone, subcutaneous every 8 h): 44.4%

Compound: CC1(C)CC[C@]2(C(=O)O)CC[C@]3(C)C(=CC[C@@H]4[C@@]5(C)CC[C@H](O)C(C)(C)[C@@H]5CC[C@]43C)[C@@H]2C1 [OA, oleanolic acid]
- inhibitory effect on β-lactamase activity in culture supernatant [2]: No significant inhibitory effect
- E. coli colonization in the liver and spleen (E. coli ZJ478; OA combined with Mep, 36 h postinfection): significantly inhibited
- survival rate (E. coli ZJ478; [7]): 61.1%
- time to complete elimination [3]: ≤ 6 h
- inhibitory effect on activity of NDM-1 mutants [4]: significant inhibitory effect was not detected
- Kd (NDM-1 F240A): 14.3 µM
- concentration protecting cells from hemolysin-mediated cell injury (MH-S cells): 1 to 4 µg/mL
- IC50 (OXA-1): > 109 µM
- concentration protecting cells from hemolysin-mediated cell injury (A549 cells): 1 to 4 µg/mL
- survival rate (S. aureus USA300 [5]; OA 50 mg/kg combined with penicillin G 50 mg/kg, subcutaneous every 8 h): 75.0%
- lung lesions (S. aureus USA300 [5]; OA combined with penicillin G): greatly alleviated
- IL-1β, IL-6, and TNF-α levels in bronchoalveolar lavage fluid (S. aureus USA300 [5]; [8]): significant decreases
- number of bacteria in the lungs (S. aureus USA300 [5]; [8]): significant reduction
- bacterial burden and inflammatory responses (S. aureus USA300 [5]; OA monotherapy): also inhibited
- survival rate (S. aureus USA300 [5]; [9]): 43.8%
- activity of β-lactamases in bronchoalveolar lavage fluid (S. aureus USA300 [5]; monotherapy): inhibited
- activity of β-lactamases in bronchoalveolar lavage fluid (S. aureus USA300 [5]; penicillin G combined with OA): inhibited
- bactericidal effect (S. aureus USA300 [6]): significantly eliminate, but not thoroughly kill
- time to complete elimination (E. coli ZJ487): ≤ 3 h
- IC50 (TEM-1): > 109 µM

Compound: CC1(C)S[C@@H]2[C@H](NC(=O)Cc3ccccc3)C(=O)N2[C@H]1C(=O)O [Penicillin G, penicillin G, reference compound]
- survival rate (S. aureus USA300 [5]; [9]): 25.0%
- activity of β-lactamases in bronchoalveolar lavage fluid (S. aureus USA300 [5]; monotherapy): such inhibition was not observed

Compound: CC1(C)CC[C@]2(C(=O)O)CC[C@]3(C)C(=CC[C@@H]4[C@@]5(C)C[C@@H](O)[C@H](O)[C@@](C)(CO)[C@@H]5CC[C@]43C)[C@@H]2C1 [arjunolic acid]
- MIC [1, 10]: 512 µg/mL
- MIC of Mep combination ([1]; ZJ487, median (range)): 8(4–16) μg/mL
- FIC Index ([1]; ZJ487): 0.40 ± 0.14
- MIC of analogues of OA combination ([1]; ZJ487): 32 μg/mL

Compound: C[C@H]1[C@H](C)CC[C@]2(C(=O)O)CC[C@]3(C)C(=CC[C@@H]4[C@@]5(C)C[C@@H](O)[C@H](O)C(C)(C)[C@@H]5CC[C@]43C)[C@H]12 [corosolic acid]
- MIC [1, 10]: 512 µg/mL
- MIC of Mep combination ([1]; ZJ487, median (range)): 2(2–4) μg/mL
- FIC Index ([1]; ZJ487): 0.17 ± 0.04
- MIC of analogues of OA combination ([1]; ZJ487): 32 μg/mL
- survival rate (E. coli ZJ478; [7]): 77.8%
- IC50 (suilysin (SLY)): < 2.12 µM
- inhibitory effect against NDM-1 (NDM-1): robust inhibitory effects

Compound: CC1(C)[C@@H](O[C@H]2O[C@H](C(=O)O)[C@@H](O)[C@H](O)[C@H]2O[C@@H]2O[C@H](C(=O)O)[C@@H](O)[C@H](O)[C@H]2O)CC[C@]2(C)[C@H]3C(=O)C=C4[C@@H]5C[C@@](C)(C(=O)O)CC[C@]5(C)CC[C@@]4(C)[C@]3(C)CC[C@@H]12 [glycyrrhizic acid]
- MIC [1, 10]: 512 µg/mL
- MIC of Mep combination ([1]; ZJ487, median (range)): 8(4–16) μg/mL
- FIC Index ([1]; ZJ487): 0.40 ± 0.14
- MIC of analogues of OA combination ([1]; ZJ487): 32 μg/mL

Compound: CC1(C)CC[C@]2(C(=O)O)CC[C@]3(C)C(=CC[C@@H]4[C@@]5(C)C[C@@H](O)[C@H](O)C(C)(C)[C@@H]5CC[C@]43C)[C@@H]2C1 [maslinic acid]
- MIC [1, 10]: 512 µg/mL
- MIC of Mep combination ([1]; ZJ487, median (range)): 4(2–4) μg/mL
- FIC Index ([1]; ZJ487): 0.38 ± 0.00
- MIC of analogues of OA combination ([1]; ZJ487): 32 μg/mL

Compound: C[C@H]1[C@H](C)CC[C@]2(C(=O)O)CC[C@]3(C)C(=CC[C@@H]4[C@@]5(C)CC[C@H](O)C(C)(C)[C@@H]5CC[C@]43C)[C@H]12 [ursolic acid]
- MIC [1, 10]: 512 µg/mL
- MIC of Mep combination ([1]; ZJ487, median (range)): 2(2–4) μg/mL
- FIC Index ([1]; ZJ487): 0.17 ± 0.04
- MIC of analogues of OA combination ([1]; ZJ487): 32 μg/mL
- inhibitory effect against NDM-1 (NDM-1): robust inhibitory effects

Compound: α-boswellic acid
- MIC of Mep combination ([1]; ZJ487, median (range)): 16(16) μg/mL
- MIC of analogues of OA alone ([1]; ZJ487, Table 1, median (range)): 512(≥512) μg/mL
- FIC Index ([1]; ZJ487): 0.73 ± 0.29
- MIC of analogues of OA combination ([1]; ZJ487): 32 μg/mL
